Experimental data as given in paper PMC12118576, “Selective Glycopolymer Inhibitors of Galectin-3: Supportive Anti-Cancer Agents Protecting Monocytes and Preserving Interferon-Gamma Function” (International Journal of Nanomedicine, 2025).
Where “and” joins values, the source holds several entries; their conditions need not be identical. Equal values may be shown once. Read-outs that look alike come from different tables or passages of the source. Values belong to the molecule of their own block, whether it stands above or below them.

Tests used:
human Gal-3 = target: T1, human Gal-3 (Homo sapiens, UniProt P17931); assay: Competitive ELISA-type assay: inhibition of Gal-3 binding to immobilized asialofetuin (ASF); details: for Selectivity for Gal-3: IC50 for Gal-1/IC50 for Gal-3
T1 construct: made in house; host or cells: E. coli Rosetta 2(DE3)pLysS
T1 sequence (P17931 whole entry): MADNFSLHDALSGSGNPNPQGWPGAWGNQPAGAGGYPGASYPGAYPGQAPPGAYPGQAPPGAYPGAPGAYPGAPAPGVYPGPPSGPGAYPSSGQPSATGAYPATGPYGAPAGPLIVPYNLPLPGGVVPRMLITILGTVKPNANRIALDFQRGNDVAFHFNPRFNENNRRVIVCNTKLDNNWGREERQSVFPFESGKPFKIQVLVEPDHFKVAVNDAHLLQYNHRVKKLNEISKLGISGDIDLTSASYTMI
Procedure: Microtiter plates (Nunc Immuno Sorb, ThermoFisher Scientific, USA) were coated with ASF (0.1 µM in PBS, pH 7.5, 50 µL/well) and incubated overnight. The wells were washed with 3×250 µL of PBS containing 0.05% Tween (repeated after each step). The wells were then blocked by 2% w/v BSA in PBS buffer (250 µL/well) for 1 h. Serial dilutions of the ligands (glycopolymers or oligosaccharides) in EPBS (2 mM EDTA in PBS) were incubated with Gal-1 or Gal-3 (1.25 µM final concentration) for 2 h. The residual bound galectin was labeled with anti-His antibody conjugated to horseradish peroxidase (Santa Cruz; 1:1000 dilution in PBS, 1 h). TMB One substrate solution (Kem-En-Tech, Denmark; 50 µL/well) was added, and the reactions were incubated until visible blue staining appeared (3–20 min). The reaction was stopped by adding 3 M HCl (50 µL per well), resulting in a color shift to yellow, which was determined spectrophotometrically by an absorbance microplate reader (Sunrise Tecan Group Ltd, CH). The intensity of the signal at 450 nm corresponded to the amount of galectin bound to the wells. Non-linear regression (dose–response inhibition-variable slope) of the sigmoidal curves was used to calculate the values of half-maximal inhibitory constants (IC50) from at least six independent experiments using GraphPad Prism 7 (GraphPad Software, USA).
For the affinity measurement, the competitive ELISA assay with ASF as an immobilized competitor ligand was employed.[51] […] The inhibitory potency of the prepared glycopolymers was compared to the respective monovalent standards (LN1-LN2-tBoc, LN2-LN2-tBoc, LDN-LN2-tBoc) to calculate their relative potencies (rp) for inhibition of Gal-3 (Table 1). Relative potency values thus disclose the extent of the so-called multivalency effect of the glycopolymer – the ability of a ligand bound to a multivalent carrier to get easier access and orientation to the lectin-binding site.[52]

J774A.1 macrophages = assay: Gal-3-induced apoptosis of J774A.1 macrophages, Annexin V flow cytometry; format: cell-based, murine; details: 10 µM Gal-3, 24 h, no glycopolymer
Procedure: For flow cytometry studies, cultured undifferentiated (without any LPS and cytokines) J774A.1 murine macrophages were seeded in a concentration of 10^5 cells/well of the 24-well plate. After 24 h of cultivation, cells were pretreated with the desired concentration of glycopolymers for 5 minutes and afterward treated with 10 μM Gal-3 for 24 h. After harvesting of cells, early and late apoptoses of Gal-3-treated J774A.1 cells in the presence or absence of glycopolymers were evaluated using eBioscience Annexin V apoptosis detection kit (Thermo Fisher Scientific). Flow cytometry was performed using FACS Canto II (BD Biosciences, Franklin Lakes, NJ, USA). Apoptotic half-maximal inhibitory concentrations (IC50) of individual glycopolymers were calculated by nonlinear regression of log(glycopolymer concentration) versus apoptosis response using GraphPad Prism 8 software (version 8.0.1; GraphPad Software, La Jolla, CA, USA).
Tumor-associated macrophages (TAMs) are defined as M1 or M2 subtypes, which differ in their roles in carcinogenesis.[56] Phenotypically M2 macrophages, which are usually more abundant inside tumors and seem to be mainly responsible for the spread of cancer,[57] are chemoattracted into the tumor mass by the Gal-3 gradient.[11] Therefore, we aimed to investigate the inhibitory potential of prepared glycopolymers towards Gal-3 in the context of monocytes and macrophages. […]

[1] = target: T2, recombinant human Gal-3 biotinylated at the lysine of the N-terminal AVI-tag (human, UniProt P17931 1-250, biotin on the lysine of the AVI-tag (…)); assay: depletion from solution by coated magnetic beads, ELISA of the supernatant; biotinylated Gal-3 on Dynabeads M-280 Streptavidin; increasing amount of beads incubated with glycosylated IFNγ, 1 h, room temperature; beads separated, IFNγ left in the supernatant measured by ELISA; details: both partners purified
T2 construct: galectin-3, human; Gal-3-AVI construct in pET-Duet1; Held on streptavidin Dynabeads M-280 through the biotin; also called Gal-3-AVI; biotinylated Gal-3; source: E. coli BL21 (DE3) with birA biotin ligase, purified (Ni-NTA)
T2 sequence (P17931 whole entry): as above

[2] = IC50 per glycan, Gal-3 1.25 µM, binding to immobilized ASF, read-out: IC50 [µM]/Glycan

Molecule: CC(=O)N[C@@H]1[C@@H](O)[C@H](O[C@@H]2O[C@H](CO)[C@H](O)[C@H](O[C@@H]3O[C@H](CO)[C@@H](O)[C@H](O[C@@H]4O[C@H](CO)[C@H](O)[C@H](O)[C@H]4O)[C@H]3NC(C)=O)[C@H]2O)[C@@H](CO)O[C@H]1NC(=S)NCCNC(=O)OC(C)(C)C [Glycopolymer 4, (tert-Butoxycarbonylamino)ethylthioureidyl β-D-Galactopyranosyl-(1→3)-2-Acetamido-2-Deoxy-β-D-Glucopyranosyl-(1→3)-β-D-Galactopyranosyl-(1→4)-2-Acetamido-2-Deoxy-β-D-Glucopyranoside]
- Selectivity for Gal-3 (human Gal-3): 17
- IC50 (human Gal-3; [2]): 27.1 ± 4.4 µM
- IC50 (human Gal-3; concentration required to inhibit Gal-3 binding to immobilized ASF by 50%, read-out: IC50): 27.1 ± 4.4 µM

Molecule: CC(=O)N[C@@H]1[C@@H](O)[C@H](O[C@@H]2O[C@H](CO)[C@H](O)[C@H](O[C@@H]3O[C@H](CO)[C@@H](O[C@@H]4O[C@H](CO)[C@H](O)[C@H](O)[C@H]4O)[C@H](O)[C@H]3NC(C)=O)[C@H]2O)[C@@H](CO)O[C@H]1NC(=S)NCCNC(=O)OC(C)(C)C [Glycopolymer 5, (tert-Butoxycarbonylamino)ethylthioureidyl β-D-Galactopyranosyl-(1→4)-2-Acetamido-2-Deoxy-β-D-Glucopyranosyl-(1→3)-β-D-Galactopyranosyl-(1→4)-2-Acetamido-2-Deoxy-β-D-Glucopyranoside]
- Selectivity for Gal-3 (human Gal-3): 10
- IC50 (human Gal-3; [2]): 10.2 ± 3.2 µM

Molecule: CC(=O)N[C@@H]1[C@@H](O)[C@H](O[C@@H]2O[C@H](CO)[C@H](O)[C@H](O[C@@H]3O[C@H](CO)[C@@H](O[C@@H]4O[C@H](CO)[C@H](O)[C@H](O)[C@H]4NC(C)=O)[C@H](O)[C@H]3NC(C)=O)[C@H]2O)[C@@H](CO)O[C@H]1NC(=S)NCCNC(=O)OC(C)(C)C [Glycopolymer 6, (tert-Butoxycarbonylamino)ethylthioureidyl 2-Acetamido-2-Deoxy-β-D-Galactopyranosyl-(1→4)-2-Acetamido-2-Deoxy-β-D-Glucopyranosyl-(1→3)-β-D-Galactopyranosyl-(1→4)-2-Acetamido-2-Deoxy-β-D-Glucopyranoside]
- Selectivity for Gal-3 (human Gal-3): 13
- IC50 (human Gal-3; [2]): 7.4 ± 0.5 µM

Molecule: Gal-3: Recombinant human galectin-3, N-terminal His-tagged protein construct produced in E. coli; used to induce apoptosis
- apoptosis of J774A.1 cells induced by Gal-3 (J774A.1 macrophages): 20.7 ± 0.8% and 15–25%

- binding result [1]: binds
B1: glycosylated human IFNγ (natural protein, UniProt P01579 24-161, looked up)
chain: QDPYVKEAENLKKYFNAGHSDVADNGTLFLGILKNWKEESDRKIMQSQIVSFYFKLFKNFKDDQSIQKSVETIKEDMNVKFFNSNKKKRDDFEKLTNYSVTDLNVQRKAIHELIQVMAELSPAAKTGKRKRSQMLFRG
modifications: glycosylated
notes: interferon-gamma, human, glycosylated; also called interferon-gamma; INFγ; source: bought: Sigma-Aldrich
